# Experimental data taken from patent US11254633B2, “Cannabis thin layer decarboxylation” (priority 2018, dated 2022).
# Where two headings read alike, the source gives them in different places.
# Tests used:
# Human keratinocyte = settings: CBD at 1-10 uM; cited from earlier work
# [1] = CBD plasma concentration after dosing; format: in vivo
# Description: The dosing of CBD for a given range of activity is predictable, Table 1. […] This is a desirable group of activities to select. CBD at one micromolar is equivalent to 0.3 ng per ML and 10 micromolar is equivalent to 3 ng per ML. AUC for CBD ranges widely for different subjects but reportedly averages about 4 ng hour per ML. A single dose of 4 mg would provide an average 0.16 ng/ml concentration over 24 hours. […] Thus in 80 mg dose would provide an average of 10 micromolar over 24 hours. A single dose would produce a single large peak with return to baseline within about 10 hours, again this is variable between individuals. It is known that as frequency of dosing increases the plasma concentration will approach a steady-state or constant value between doses, eliminating the large peaks and valleys associated with infrequent doses. A reasonable dosing schedule might be 25 mg CBD three times daily to achieve 75 mg daily, about 9.4 micromolar average, at the high end of the 1-10 uM range. Similarly a 2.5 mg dose every eight hours would yield an approximately 1 micromolar average concentration.
# TRPV1 receptor = TRPV1 receptor (Homo sapiens, UniProt Q8NER1); settings: CBD at 1-10 uM; cited from earlier work
# [2] = plant material in a 110° C. oven, Taschwer; cited from earlier work
# [3] = cited from earlier work
# [4] = cited from earlier work; remark: listed apart in the source
# [5] = tested on: alpha1 adrenoreceptors and u-opioid receptors; settings: CBD at 1-10 uM; cited from earlier work
# neuroprotection = settings: CBD at 1-10 uM; cited from earlier work
# Membrane = settings: CBD at 1-10 uM; cited from earlier work
# 5HT-1a receptor = molecular target: T1, 5HT-1a receptor (Homo sapiens, UniProt P08908); settings: CBD at >10 uM; cited from earlier work
# T1 sequence (P08908 1-422): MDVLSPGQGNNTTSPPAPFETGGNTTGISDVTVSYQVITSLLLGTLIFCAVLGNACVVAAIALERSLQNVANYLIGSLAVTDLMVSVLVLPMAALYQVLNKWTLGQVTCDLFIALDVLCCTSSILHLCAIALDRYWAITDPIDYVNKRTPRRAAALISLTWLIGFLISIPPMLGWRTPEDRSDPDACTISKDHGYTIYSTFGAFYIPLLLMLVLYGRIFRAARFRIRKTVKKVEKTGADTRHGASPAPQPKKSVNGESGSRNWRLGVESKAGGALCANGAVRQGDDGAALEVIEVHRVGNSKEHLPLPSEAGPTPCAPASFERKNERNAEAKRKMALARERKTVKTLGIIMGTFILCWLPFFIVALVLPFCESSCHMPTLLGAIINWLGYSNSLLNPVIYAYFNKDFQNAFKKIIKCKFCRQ
# [6] = for time to full conversion (decarboxylation): thin layer, 400 deg F.
# [7] = 110° C., FIG. 7, cited from earlier work
# CB 2 receptor = CB 2 receptor (Homo sapiens, UniProt P34972); settings: fold higher than THC; cited from earlier work
# CB one receptor = CB one receptor (Homo sapiens, UniProt P21554); settings: fold lower than THC; cited from earlier work
# onychomycosis = settings: cited from earlier work
# [8] = two-13-year-olds in one study; cited from earlier work
# [9] = cited from earlier work; remark: listed apart in the source
# [10] = aqueous; cited from earlier work
# pain patients = settings: initial studies in pain patients; cited from earlier work
# [11] = 100° C. and 110° C., FIG. 6C, 6D, sum decreases significantly
# Chain of CB one receptor (P21554 whole entry): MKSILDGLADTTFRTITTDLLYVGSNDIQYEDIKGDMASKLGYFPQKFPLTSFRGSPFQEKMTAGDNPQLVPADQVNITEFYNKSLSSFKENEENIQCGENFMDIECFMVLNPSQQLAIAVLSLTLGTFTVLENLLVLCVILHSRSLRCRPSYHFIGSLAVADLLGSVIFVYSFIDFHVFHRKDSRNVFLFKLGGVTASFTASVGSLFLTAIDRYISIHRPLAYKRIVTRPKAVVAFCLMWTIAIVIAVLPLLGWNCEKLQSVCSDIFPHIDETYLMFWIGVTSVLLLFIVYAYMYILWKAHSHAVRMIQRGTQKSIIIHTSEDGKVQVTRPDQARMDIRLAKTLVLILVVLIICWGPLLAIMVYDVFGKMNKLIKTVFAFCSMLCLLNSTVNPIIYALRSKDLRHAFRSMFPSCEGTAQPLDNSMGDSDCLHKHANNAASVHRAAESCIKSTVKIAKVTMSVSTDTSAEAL
# Chain of CB 2 receptor (P34972 whole entry): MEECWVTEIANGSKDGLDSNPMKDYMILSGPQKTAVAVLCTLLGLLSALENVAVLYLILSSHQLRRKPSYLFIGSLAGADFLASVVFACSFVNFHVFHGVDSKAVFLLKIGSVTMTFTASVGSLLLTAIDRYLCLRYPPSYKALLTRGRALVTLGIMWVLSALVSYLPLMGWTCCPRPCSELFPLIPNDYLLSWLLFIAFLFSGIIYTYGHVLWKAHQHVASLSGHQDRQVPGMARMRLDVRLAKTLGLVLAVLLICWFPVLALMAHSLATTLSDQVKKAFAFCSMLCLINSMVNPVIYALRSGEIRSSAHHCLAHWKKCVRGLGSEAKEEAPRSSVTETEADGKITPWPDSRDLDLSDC
# Chain of TRPV1 receptor (Q8NER1 whole entry): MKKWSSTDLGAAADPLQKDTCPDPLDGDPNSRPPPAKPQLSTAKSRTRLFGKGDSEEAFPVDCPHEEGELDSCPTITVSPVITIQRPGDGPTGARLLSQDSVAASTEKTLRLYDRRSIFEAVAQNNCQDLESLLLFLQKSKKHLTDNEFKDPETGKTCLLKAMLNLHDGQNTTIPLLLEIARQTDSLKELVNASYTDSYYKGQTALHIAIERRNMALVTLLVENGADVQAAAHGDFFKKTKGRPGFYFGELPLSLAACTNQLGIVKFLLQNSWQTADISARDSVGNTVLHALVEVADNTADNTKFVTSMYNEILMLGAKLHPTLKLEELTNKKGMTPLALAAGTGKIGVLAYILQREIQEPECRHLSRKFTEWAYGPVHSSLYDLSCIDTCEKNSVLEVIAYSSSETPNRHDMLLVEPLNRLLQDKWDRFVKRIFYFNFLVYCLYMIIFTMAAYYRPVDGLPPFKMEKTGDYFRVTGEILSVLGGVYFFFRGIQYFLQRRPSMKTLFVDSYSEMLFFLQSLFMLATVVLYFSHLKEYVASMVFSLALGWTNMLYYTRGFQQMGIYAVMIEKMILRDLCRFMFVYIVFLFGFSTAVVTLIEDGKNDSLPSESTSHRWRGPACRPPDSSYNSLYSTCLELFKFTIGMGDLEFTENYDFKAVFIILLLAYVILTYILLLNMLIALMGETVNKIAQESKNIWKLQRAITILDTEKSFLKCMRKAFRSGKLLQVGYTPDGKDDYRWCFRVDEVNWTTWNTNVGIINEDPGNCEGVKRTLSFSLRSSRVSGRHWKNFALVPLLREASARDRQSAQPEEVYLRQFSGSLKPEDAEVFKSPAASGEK
smiles,measurement,setting,value
"C=C(C)[C@@H]1CCC(C)=C[C@H]1c1c(O)cc(CCCCC)cc1O [CBD, cannabidiol]",action induced by CBD: Decreased human keratinocyte proliferation,Human keratinocyte,Human keratinocyte proliferation
same,average concentration,[1]; 2.5 mg dose every eight hours,approximately 1 micromolar
same,average concentration,"[1]; 25 mg CBD three times daily, 75 mg daily",about 9.4 micromolar
same,average concentration over 24 hours,[1]; 80 mg dose,10 µM
same,average concentration over 24 hours,[1]; 8 milligrams dose,0.32 ng per ML
same,"average concentration over 24 hours, as molarity",[1]; 8 milligrams dose,about one micromolar
same,average concentration over 24 hours,[1]; single dose of 4 mg,0.16 ng/mL
same,action induced by CBD: Increased or activated TRPV1 receptor,TRPV1 receptor,TRPV1 receptor
same,time to peak CBD,[2],135 min
same,degradation judged from sum of CBDA and CBD concentration,"[3]; 80° C. and 90° C., FIG. 6A, 6B",no degradation
same,degradation judged from sum of CBDA and CBD concentration,[3]; [11],loss
same,time to peak CBD,"[3]; 110° C., cannabis oil in an open vial in an oven, FIG. 6D",90 min
same,loss of converted CBD compared to the closed reactor at the same temperature,"[3]; 120° open reactor, FIG. 6E",45-55%
same,"AUC for CBD, average",[4]; ranges widely for different subjects,about 4 ng hour per ML
same,return to baseline after a single dose,"[4]; single dose, variable between individuals",≤ 10 h
same,action induced by CBD: Decreased activation of alpha1 adrenoreceptors and u-opioid receptors,[5],Activation of alpha1 adrenoreceptors and u-opioid
same,action induced by CBD: Increased or activated signs of neuroprotection,neuroprotection,Signs of neuroprotection
same,action induced by CBD: Increased or activated Membrane stability,Membrane,Membrane stability
same,action induced by CBD: Ativated 5HT-1a receptor,5HT-1a receptor,5HT-1a receptor
C=C(C)[C@@H]1CCC(C)=C[C@H]1c1c(O)cc(CCCCC)c(C(=O)O)c1O [CBDA],degradation judged from sum of CBDA and CBD concentration,"[3]; 80° C. and 90° C., FIG. 6A, 6B",no degradation
same,degradation judged from sum of CBDA and CBD concentration,[3]; [11],loss
same,loss of CBDA,"[3]; 120° C. open reactor, FIG. 6E, incomplete conversion to CBD",rapid loss
same,time to full conversion (decarboxylation),[6],fully converted in under a minute
CCCCCc1cc(O)c(C/C=C(\C)CCC=C(C)C)c(O)c1C(=O)O [CBGA],consumption of CBGA,[7],complete consumption
CCCCCc1cc(O)c(C/C=C(\C)CCC=C(C)C)c(O)c1 [CBG],loss of total CBG,[7]; in the time decarboxylation is maximized,50%
CCCCCc1cc(O)c2c(c1)OC(C)(C)c1ccc(C)cc1-2 [CBN],"affinity for CB 2 receptor, higher than THC",CB 2 receptor,3 fold
same,"affinity for CB one receptor, lower than THC",CB one receptor,2 fold
C=C1CC[C@H]2O[C@]2(C)CC[C@@H]2[C@@H]1CC2(C)C [Caryophyllene Oxide],time in which effective in onychomycosis,onychomycosis; at 8% concentration,15 days
same,clinical onychomycosis efficacy versus reference drugs,onychomycosis; in vivo,efficacy similar to cyclopiroxolamine and sulconazole
CCCCCc1cc(O)c2c(c1)OC(C)(C)[C@@H]1CC=C(C)C[C@@H]21 [Delta 8 THC],psychoactive effect,[8],no psychoactive effect
CCCCCc1cc2c(c(O)c1C(=O)O)[C@@H]1C=C(C)CC[C@H]1C(C)(C)O2 [THCA],time to full conversion (decarboxylation),[6],fully converted in under a minute
CCCCCc1cc(O)c2c(c1)OC(C)(C)[C@@H]1CCC(C)=C[C@@H]21 [THC],loss of total THC (THC A+ THC) from the starting condition,[3]; 120° C. closed reactor,approximately 10%
same,loss of THC relative to 120° C. closed reactor,"[3]; open reactor, 100° C. (212° F.), FIG. 6C",about 28%
same,loss compared to that maximally achieved at 120° C. in the closed reactor,"[3]; open reactor, 110° C. (230° F.), FIG. 6d",about 28%
same,anti-inflammatory activity relative to hydrocortisone,[9]; relative to hydrocortisone,two times
same,anti-inflammatory activity relative to aspirin,[9]; times the activity of aspirin,20 times
same,THC remaining,[6]; 20 min,only a trace
same,concentration at which THC saturates in cannabis tea,[10],about 10 mg/L
same,analgesic effect in pain patients,pain patients,provided analgesic effects
